ChEMBL document CHEMBL3817833, “Synthesis and evaluation of antitubercular activity of fluorinated 5-aryl-4-(hetero)aryl substituted pyrimidines” (Bioorg Med Chem, 2016)
Values after ≈ are worked out from the molar mass of the structure shown.

What was measured:
[1] = system: Mycobacterium tuberculosis; assay: Antimycobacterial activity against Mycobacterium tuberculosis H37Rv after […] by microbroth dilution method; type: functional
Mycobacterium avium = assay: Antimycobacterial activity against Mycobacterium avium after […] by microbroth dilution method; type: functional
Mycolicibacter terrae = assay: Antimycobacterial activity against Mycobacterium terrae after […] by microbroth dilution method; type: functional
[2] = Acute toxicity in po dosed mouse administered as single dose measured after 14 days; type: organism-based; details: in vivo
[3] = Acute toxicity in po dosed mouse; type: organism-based; details: in vivo

Compound | MIC [1] [µM] | MIC (Mycobacterium avium) [µM] | MIC (Mycolicibacter terrae) [µM] | LD50 at 336 h [2] [mg/kg] | LD50 [3] [mg/kg]
c1ccc(-c2cncnc2)cc1 | 80 (≈ 12.5 µg/mL) | 80 (≈ 12.5 µg/mL) | 80 (≈ 12.5 µg/mL) |  | 
Fc1ccccc1-c1cncnc1 | 71.8 (≈ 12.5 µg/mL) | 71.8 (≈ 12.5 µg/mL) | 71.8 (≈ 12.5 µg/mL) |  | 
Fc1cc(F)cc(-c2cncnc2-c2cccs2)c1 | 45.6 (≈ 12.5 µg/mL) | 45.6 (≈ 12.5 µg/mL) | 45.6 (≈ 12.5 µg/mL) |  | 
Fc1ccc(-c2cncnc2-c2ccco2)cc1 | 52 (≈ 12.5 µg/mL) | 52 (≈ 12.5 µg/mL) | 52 (≈ 12.5 µg/mL) |  | 
Fc1ccc(-c2cncnc2)cc1 | 71.8 (≈ 12.5 µg/mL) | 71.8 (≈ 12.5 µg/mL) | 71.8 (≈ 12.5 µg/mL) |  | 
FC(F)(F)c1cc(-c2cncnc2-c2cccs2)cc(C(F)(F)F)c1 | 33.4 (≈ 12.5 µg/mL) | 33.4 (≈ 12.5 µg/mL) | 33.4 (≈ 12.5 µg/mL) |  | 
Fc1ccc(-c2cncnc2-c2cccs2)cc1 | 48.8 (≈ 12.5 µg/mL) | 12.5 (≈ 3.2 µg/mL) | 12.5 (≈ 3.2 µg/mL) |  | 
Fc1cccc(-c2cncnc2-c2cccs2)c1 | 48.8 (≈ 12.5 µg/mL) | 12.5 (≈ 3.2 µg/mL) | 12.5 (≈ 3.2 µg/mL) |  | 
FC(F)(F)c1cccc(-c2cncnc2-c2cccs2)c1 | 4.9 (≈ 1.5 µg/mL) | 4.9 (≈ 1.5 µg/mL) | 4.9 (≈ 1.5 µg/mL) |  | 
c1ccc(-c2cncnc2-c2ccco2)cc1 | 1.57 (≈ 0.349 µg/mL) | 1.57 (≈ 0.349 µg/mL) | 1.57 (≈ 0.349 µg/mL) | 150 | 
c1ccc(-c2cncnc2-c2cccs2)cc1 | 26 (≈ 6.2 µg/mL) | 26 (≈ 6.2 µg/mL) | 26 (≈ 6.2 µg/mL) |  | 
Fc1ccc(-c2cncnc2-c2cccs2)c(F)c1 | 45.6 (≈ 12.5 µg/mL) | 45.6 (≈ 12.5 µg/mL) | 45.6 (≈ 12.5 µg/mL) |  | 
Fc1cccc(-c2cncnc2-c2ccco2)c1 | 6.24 (≈ 1.5 µg/mL) | 6.24 (≈ 1.5 µg/mL) | 6.24 (≈ 1.5 µg/mL) |  | 
Fc1cc(F)cc(-c2cncnc2-c2ccco2)c1 | 24 (≈ 6.2 µg/mL) | 24 (≈ 6.2 µg/mL) | 24 (≈ 6.2 µg/mL) |  | 
FC(F)(F)c1ccccc1-c1cncnc1 | 27.7 (≈ 6.2 µg/mL) | 27.7 (≈ 6.2 µg/mL) | 27.7 (≈ 6.2 µg/mL) |  | 
FC(F)(F)c1ccc(-c2cncnc2)cc1 | 55.8 (≈ 12.5 µg/mL) | 55.8 (≈ 12.5 µg/mL) | 55.8 (≈ 12.5 µg/mL) |  | 
FC(F)(F)c1ccccc1-c1cncnc1-c1cccs1 | 20.2 (≈ 6.2 µg/mL) | 20.2 (≈ 6.2 µg/mL) | 20.2 (≈ 6.2 µg/mL) |  | 
FC(F)(F)c1ccc(-c2cncnc2)c(C(F)(F)F)c1 | 42.8 (≈ 12.5 µg/mL) | 42.8 (≈ 12.5 µg/mL) | 42.8 (≈ 12.5 µg/mL) |  | 

Compound | MIC [1] [µM] | MIC (Mycobacterium avium) [µM] | MIC (Mycolicibacter terrae) [µM] | LD50 at 336 h [2] [mg/kg] | LD50 [3] [mg/kg]
Fc1ccc(-c2cncnc2)c(F)c1 | 16.1 (≈ 3.1 µg/mL) | 16.1 (≈ 3.1 µg/mL) | 16.1 (≈ 3.1 µg/mL) |  | 
FC(F)(F)c1ccc(-c2cncnc2-c2ccco2)cc1 | 43.1 (≈ 12.5 µg/mL) | 43.1 (≈ 12.5 µg/mL) | 43.1 (≈ 12.5 µg/mL) |  | 
FC(F)(F)c1ccc(-c2cncnc2-c2ccco2)c(C(F)(F)F)c1 | 1.95 (≈ 0.699 µg/mL) | 1.95 (≈ 0.699 µg/mL) | 0.98 (≈ 0.351 µg/mL) | 600 | 
Fc1cccc(-c2cncnc2)c1 | 35.9 (≈ 6.25 µg/mL) | 35.9 (≈ 6.25 µg/mL) | 35.9 (≈ 6.25 µg/mL) |  | 
Fc1cc(F)cc(-c2cncnc2)c1 | 3.64 (≈ 0.699 µg/mL) | 3.64 (≈ 0.699 µg/mL) | 3.64 (≈ 0.699 µg/mL) | 300 | 
Fc1ccccc1-c1cncnc1-c1cccs1 | 48.8 (≈ 12.5 µg/mL) | 12.5 (≈ 3.2 µg/mL) | 12.5 (≈ 3.2 µg/mL) |  | 
FC(F)(F)c1ccc(-c2cncnc2-c2cccs2)cc1 | 40.8 (≈ 12.5 µg/mL) | 40.8 (≈ 12.5 µg/mL) | 40.8 (≈ 12.5 µg/mL) |  | 
Fc1ccc(-c2cncnc2-c2ccco2)c(F)c1 | 48.4 (≈ 12.5 µg/mL) | 48.4 (≈ 12.5 µg/mL) | 48.4 (≈ 12.5 µg/mL) |  | 
Fc1ccccc1-c1cncnc1-c1ccco1 | 52 (≈ 12.5 µg/mL) | 52 (≈ 12.5 µg/mL) | 52 (≈ 12.5 µg/mL) |  | 
FC(F)(F)c1cccc(-c2cncnc2-c2ccco2)c1 | 43.1 (≈ 12.5 µg/mL) | 43.1 (≈ 12.5 µg/mL) | 43.1 (≈ 12.5 µg/mL) |  | 
FC(F)(F)c1ccc(-c2cncnc2-c2cccs2)c(C(F)(F)F)c1 | 16.6 (≈ 6.2 µg/mL) | 16.6 (≈ 6.2 µg/mL) | 16.6 (≈ 6.2 µg/mL) |  | 
FC(F)(F)c1ccccc1-c1cncnc1-c1ccco1 | 43.1 (≈ 12.5 µg/mL) | 43.1 (≈ 12.5 µg/mL) | 43.1 (≈ 12.5 µg/mL) |  | 
FC(F)(F)c1cccc(-c2cncnc2)c1 | 55.8 (≈ 12.5 µg/mL) | 55.8 (≈ 12.5 µg/mL) | 55.8 (≈ 12.5 µg/mL) |  | 
FC(F)(F)c1cc(-c2cncnc2-c2ccco2)cc(C(F)(F)F)c1 | 8.65 (≈ 3.1 µg/mL) | 8.65 (≈ 3.1 µg/mL) | 8.65 (≈ 3.1 µg/mL) |  | 
FC(F)(F)c1cc(-c2cncnc2)cc(C(F)(F)F)c1 | 5.13 (≈ 1.5 µg/mL) | 5.13 (≈ 1.5 µg/mL) | 5.13 (≈ 1.5 µg/mL) |  | 
NNC(=O)c1ccncc1 [ISONIAZID] | 0.73 (≈ 0.1 µg/mL) | 0.73 (≈ 0.1 µg/mL) | 0.73 (≈ 0.1 µg/mL) |  | 
CC1COc2c(N3CCN(C)CC3)c(F)cc3c(=O)c(C(=O)O)cn1c23 (stereo not given) [OFLOXACIN] | 0.28 (≈ 0.101 µg/mL) | 0.28 (≈ 0.101 µg/mL) | 0.28 (≈ 0.101 µg/mL) |  | 5450
NC(=O)c1cnccn1 [PYRAZINAMIDE] | 102 (≈ 12.5 µg/mL) |  |  |  | 
